Earlier results, collected in patent publication US6797722B2 (Sigma-Tau Industrie Farmaceutiche Riunite S.p.A., priority 2002, dated 2004).

Conditions: oral route

SMILES: CCc1ccccc1-c1n[nH]c(-c2cccc(OC)c2)n1 [ST1959, 3-(2-ethylphenyl)-5-(3-methoxyphenyl)-1H-1,2,4-triazole]
- hepatic first-pass effect: rapid and extensive hepatic first-pass effect leading to the formation of inactive metabolites
